One test has as its target T1, E. coli MTAN (Escherichia coli, UniProt P0AF12).
T1 construct: made in house
Description: biochemical. It is filed as biochemical. Here is the method: After removal of cell debris by centrifugation, the soluble cell lysates are loaded onto nickel-charged chelating Sepharose (GE Healthcare) and washed with lysis buffer containing 20-150 mM imidazole. The 6His-MTANs are eluted in 250 mM imidazole, desalted using a Sephadex G-15 (GE Healthcare) gel filtration column, equilibrated with low salt buffer (100 mM HEPES, 30 mM KCL, pH 7.6) and concentrated to 40 mg/mL.
Briefly, all experiments are carried out at 25° C., in 1 mL total reaction volume containing 100 mM HEPES buffer, pH 7.5 and 50 mM KCl with 5′-deoxymethylthioadenosine (MTA) as substrate. […] For measuring dissociation constant (Kd) of inhibitors, a xanthine oxidase-coupled assay is carried out. […] Control experiments are carried out in the absence of either inhibitor or MTAN.
[formula] where vs^t and vs are steady state rates in the presence, and absence of inhibitor, respectively; Km is substrate Michaelis constant which is obtained as described above; [S] and [I] are the concentrations of the substrate MTA and inhibitor, respectively. If the concentration of inhibitor is smaller than 10-fold concentration of enzymes, the following correction is then applied: r=I′−(1−v0′/v0)Et
All data fitting is carried out with KaleidaGraph™ ver. 3.5 (Synergy Software).

A further test has as its target T2, human MTAP (Homo sapiens, UniProt Q13126).
T2 construct: made in house
T2 sequence (Q13126 1-283): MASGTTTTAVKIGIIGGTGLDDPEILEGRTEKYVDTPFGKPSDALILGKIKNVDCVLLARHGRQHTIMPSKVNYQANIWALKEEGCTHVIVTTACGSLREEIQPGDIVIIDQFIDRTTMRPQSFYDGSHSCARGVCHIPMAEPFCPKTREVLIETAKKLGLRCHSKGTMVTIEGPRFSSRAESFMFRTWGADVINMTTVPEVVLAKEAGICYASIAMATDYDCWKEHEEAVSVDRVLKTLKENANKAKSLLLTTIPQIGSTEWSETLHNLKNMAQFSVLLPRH
Nature of the test: Inhibition of human MTAP, continuous spectrophotometric assay. It is filed as biochemical. An excerpt:
Continuous spectrophotometric assays are used to characterize the compounds of the invention and […] inhibition of MTAP.

Where [1] appears, read: 25° C., pH 7.5, MTA as substrate, read-out: Inhibition (Ki) E. coli MTAN.
Where [2] appears, read: read-out: Inhibition (Ki) Human MTAP.

SMILES strings stand for the structures. Like-named read-outs stand apart in the source and are kept apart here.

T1 sequence (P0AF12 whole entry): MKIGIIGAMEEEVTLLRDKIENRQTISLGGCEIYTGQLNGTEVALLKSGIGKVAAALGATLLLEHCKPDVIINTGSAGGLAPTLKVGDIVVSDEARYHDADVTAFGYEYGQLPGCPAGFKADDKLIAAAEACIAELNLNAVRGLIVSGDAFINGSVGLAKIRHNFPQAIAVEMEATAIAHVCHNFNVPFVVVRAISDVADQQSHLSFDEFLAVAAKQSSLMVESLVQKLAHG

In the case of `CC[C@@H]1CN(Cc2c[nH]c3c(N)ncnc23)C[C@H]1O` (racemic) [Example 11, (±)-trans-1-[(9-Deaza-adenin-9-yl)methyl]-4-ethyl-3-hydroxypyrrolidine], the inhibition constant Ki worked out at 0.31 ± 0.02 nM on E. coli MTAN and 8.6 ± 1 nM at human MTAP.

`Nc1ncnc2c(CN3C[C@@H](O)[C@H](C4CCCC4)C3)c[nH]c12` (racemic) [Example 13, (±)-trans-4-Cyclopentyl-1-[(9-deaza-adenin-9-yl)methyl]-3-hydroxypyrrolidine]: the affinity on human MTAP corresponds to a Ki of 2.4 ± 0.4 nM.

For `Nc1ncnc2c(CN3C[C@@H](O)[C@H](c4cn(Cc5ccccc5)nn4)C3)c[nH]c12` (racemic) [Example 14, (±)-trans-4-(1-Benzyl-1H-1,2,3-triazol-4-yl)-1[(9-deaza-adenin-9-yl)methyl]-3-hydroxypyrrolidine], at human MTAP (at 2.5 μM), the “Inhibition of Human MTAP” value is reported as “^a (indicates no inhibition observed at 2.5 μM)”.

Take `Nc1ncnc2c(CN3C[C@@H](O)[C@H](c4ccccc4)C3)c[nH]c12` (racemic) [Example 1, (±)-trans-1-[(9-Deaza-adenin-9-yl)methyl]-3-hydroxy-4-phenylpyrrolidine]: the affinity on human MTAP, expressed as Ki, was 4.3 ± 0.6 nM.

On to `C=CC[C@@H]1CN(Cc2c[nH]c3c(N)ncnc23)C[C@H]1O` (racemic) [Example 6, (±)-trans-4-Allyl-1-[(9-deaza-adenin-9-yl)methyl]-3-hydroxypyrrolidine], for which the Ki on human MTAP amounted to 14.3 ± 1.7 nM.

Consider `C=C[C@@H]1CN(Cc2c[nH]c3c(N)ncnc23)C[C@H]1O` (racemic) [Example 5, (±)-trans-1-[(9-Deaza-adenin-9-yl)methyl]-3-hydroxy-4-vinylpyrrolidine], for which, at human MTAP, the Ki turned out to be 8.7 ± 1 nM.

On to `Nc1ncnc2c(CN3C[C@@H](CCCSCc4ccccc4)[C@H](O)C3)c[nH]c12` (racemic) [Example 16, (±)-trans-4-[3-(Benzylthio)propyl]-1-[(9-deaza-adenin-9-yl)methyl]-3-hydroxypyrrolidine], for which the “Selectivity for bacterial MTAN” value at E. coli MTAN is on record as “some selectivity for bacterial MTAN”. Besides, the Ki on human MTAP amounted to 71 ± 5 nM.

Consider `CCC(CC)[C@@H]1CN(Cc2c[nH]c3c(N)ncnc23)C[C@H]1O` (racemic) [Example 10, (±)-trans-1-[(9-Deaza-adenin-9-yl)methyl]-3-hydroxy-4-(pent-3-yl)pyrrolidine], for which the results for the Ki at E. coli MTAN and at human MTAP were 0.7 ± 0.1 nM and over 5000 nM, respectively.

Take `CC[C@H]1CN(Cc2c[nH]c3c(N)ncnc23)C[C@H]1O` (racemic) [Example 18, (±)-cis-1-[(9-Deaza-adenin-9-yl)methyl]-4-ethyl-3-hydroxypyrrolidine]: the Ki on E. coli MTAN (setting [1]) worked out at 1.8 ± 0.3 nM; at human MTAP it was 34 ± 3 nM.

Regarding `CCCC[C@H]1CN(Cc2c[nH]c3c(N)ncnc23)C[C@@H]1O` [Example 17, (3R,4S)-4-Butyl-1-[(9-deaza-adenin-9-yl)methyl]-3-hydroxypyrrolidine], the inhibitory constant (Ki) at human MTAP (setting [2]) was 0.55 ± 0.07 nM.

`C#C[C@@H]1CN(Cc2c[nH]c3c(N)ncnc23)C[C@H]1O` (racemic) [Example 7, (±)-3,4-trans-1-[(9-Deaza-adenin-9-yl)methyl]-4-ethynyl-3-hydroxypyrrolidine]: the Ki on E. coli MTAN (setting [1]) was 0.39 ± 0.02 nM; on human MTAP (setting [2]), 31 ± 3 nM.

As for `Nc1ncnc2c(CN3C[C@@H](O)[C@H](C4CC4)C3)c[nH]c12` (racemic) [Example 4, (±)-trans-4-Cyclopropyl-1-[(9-deaza-adenin-9-yl)methyl]-3-hydroxypyrrolidine], the affinity on human MTAP corresponds to a Ki of 5.8 ± 0.7 nM.

`Nc1ncnc2c(CN3C[C@@H](O)[C@H](c4c[nH]nn4)C3)c[nH]c12` (racemic) [Example 15, (±)-trans-1-[(9-Deaza-adenin-9-yl)methyl]-3-hydroxy-4-(1H-1,2,3-triazol-4-yl)pyrrolidine]: the Ki on E. coli MTAN (setting [1]) is 2 ± 0.2 nM; at human MTAP (setting [2]) it was 59 ± 8 nM.

`CCCC[C@@H]1CN(Cc2c[nH]c3c(N)ncnc23)C[C@H]1O` (racemic) [Example 8, (±)-trans-1-[(9-Deaza-adenin-9-yl)methyl]-4-butyl-3-hydroxypyrrolidine]: the Ki on E. coli MTAN (setting [1]) was 0.051 ± 0.003 nM; on human MTAP, over 5000 nM.

As for `CC[C@H]1CN(Cc2c[nH]c3c(N)ncnc23)C[C@@H]1O` [Example 12], the Ki on human MTAP was over 5000 nM.

For `Nc1ncnc2c(CN3C[C@@H](CC4CCCCC4)[C@H](O)C3)c[nH]c12` (racemic) [Example 2, (±)-trans-4-(Cyclohexylmethyl)-1-[(9-deaza-adenin-9-yl)methyl]-3-hydroxy-pyrrolidine], the inhibition constant Ki on human MTAP is over 5000 nM.

In turn, `CC(C)C[C@@H]1CN(Cc2c[nH]c3c(N)ncnc23)C[C@H]1O` (racemic) [Example 9, (±)-trans-1-[(9-Deaza-adenin-9-yl)methyl]-3-hydroxy-4-isobutylpyrrolidine] displayed a Ki on human MTAP of 6 ± 0.4 nM.

Broadly, the Ki is the dissociation constant of the complex between target and ligand, obtained from inhibition or displacement.

The record behind these values is patent publication US9957272B2, “3-hydroxypyrrolidine inhibitors of 5′-methylthioadenosine phosphorylase and nucleosidase” (priority 2009, dated 2018).
